Test results reported in patent publication EP0326331B1, “Substituted quinolines and cinnolines” (Dow AgroSciences LLC, priority 1988, dated 1989).
Read-outs that look alike come from different tables or passages of the source.

Key:
CUCURBIT DOWNY MILDEW = assay: Greenhouse combination test with known fungicide, foliar spray; settings: 1-9 rating scale
Protocol: (§3) The test compounds were formulated for application by dissolving 50 mg of the compound into 1.25 ml of solvent. The solvent was prepared by mixing 50 ml of "Tween 20" with 475 ml of acetone and 475 ml of ethanol. The solvent/compound solution was diluted to 125 ml with deionized water. The resulting formulation contains 400 ppm test chemical. Lower concentrations were obtained by serial dilution with the solvent-surfactant mixture.
(§4) The formulated technical compounds were sprayed on all foliar surfaces of the host plants (or cut berry) to past run-off. Single pots of each host plant were placed on raised, revolving pedestals in a fume hood. Test solutions were sprayed on all foliar surfaces. All treatments were allowed to dry and the plants were inoculated with the appropriate pathogens within 2-4 hours.
(§5) In the tables, the time given under "Time in hours" is the number of hours elapsing between treatment and inoculation. […] In such cases, curative activity was being tested. […] In such cases, residual or protectant activity was tested. […] The results were evaluated on a 1-9 rating scale. These ratings represent the following percent disease control: 1 = 0-19%, 2 = 20-29%, 3 = 30-39%, 4 = 40-59%, 5 = 60-74%, 6 = 75-89%, 7 = 90-96%, 8 = 97-99%, and 9 = 100%.

[1] = system: Erysiphe graminis tritici (powdery mildew); assay: Test 1 greenhouse foliar spray screen, powdery mildew on wheat; type: in vivo; settings: for POWD MDEW: disease control rating, foliar spray on wheat, 400 ppm (+++ at 100 ppm)
[2] = system: Septoria tritici (leaf blotch); assay: Test 1 greenhouse foliar spray screen, leaf blotch on wheat; type: in vivo; settings: for LEAF BLOT: disease control rating, foliar spray on wheat, 400 ppm (+++ at 100 ppm)
[3] = system: Pseudoperonospora cubensis (downy mildew); assay: Test 1 greenhouse foliar spray screen, downy mildew on squash; type: in vivo; settings: for DOWN MDEW: disease control rating, foliar spray on squash, 400 ppm (+++ at 100 ppm); for activity against downy mildew: summary statement in the description
[4] = system: melon aphids (Aphis gossypii Glover); assay: Mite/insect screen, MA; type: in vivo; settings: Aphis gossypii, percent mortality, read-out: MA RESULTS %
Method in brief: (§1)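 Formulation: acetone/alcohol 50:50 + sulfonate/nonionic emulsifiers, water-diluted to indicated concs. Spray both leaf surfaces to runoff, 10 psi; dry 1 h. Armyworm: 2 excised uninfested leaves in Petri dish. Score % mortality after standard exposure.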

[5] = system: southern armyworm (Spodopetra eridania Cramer); assay: Mite/insect screen, SAW; type: in vivo; settings: Spodoptera eridania, percent mortality, read-out: SAW RESULTS %
Method in brief: as §1

[6] = system: Venturia inaequalis (apple scab); assay: Test 1 greenhouse foliar spray screen, apple scab on apple seedling; type: in vivo; settings: for APPL SCAB: disease control rating, foliar spray on apple seedling, 400 ppm (+++ at 100 ppm)
Phytophthora infestans = type: in vivo; settings: field test
[7] = system: Botrytis cinerea (gray mold); assay: Test 1 greenhouse foliar spray screen, gray mold on grape berries; type: in vivo; settings: for GRAY MOLD: disease control rating, spray on grape berries, 400 ppm (+++ at 100 ppm)
[8] = system: Twospotted spider mites (Tetranychus urticae Koch); assay: Mite/insect screen, SM; type: in vivo; settings: Tetranychus urticae, percent mortality, read-out: SM RESULTS %
Method in brief: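 Compounds dissolved in 50:50 acetone/alcohol containing sulfonate/nonionic emulsifier blends, then diluted with water to the indicated concentrations. Leaves sprayed on both surfaces to runoff at 10 psi and dried one hour. Percent mortality scored after standard exposure periods.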

CUCURBIT POWDERY MILDEW = assay: Greenhouse combination test with known fungicide, foliar spray; settings: 1-9 rating scale, time 4 hours
Protocol: as §3, §4, §5

[9] = system: Pyricularia oryzae (rice blast); assay: whole plant or invertebrate; type: in vivo; settings: for RICE BLAST: disease control rating, foliar spray on rice, 400 ppm (+++ at 100 ppm); for activity against rice blast: summary statement in the description
corn rootworm = assay: Mite/insect screen, CRW; type: in vivo; settings: percent mortality, read-out: CRW RESULTS %
Method in brief: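 Percent mortality is evaluated once the standard exposure period ends. Test material is applied as a water dilution of an acetone/alcohol (50:50) stock carrying two sulfonate/nonionic emulsifiers (23 and 13 g per liter).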

Pyrenophora teres = assay: Field tests against plant pathogens; type: in vivo; settings: field test, crop barley
Text: (§2) Selected compounds were field tested against a variety of plant pathogens. […]

Plasmopara viticola = assay: Field tests against plant pathogens; type: in vivo; settings: field test, crop grape
Text: as §2

Sphaerotheca fuliginea = assay: Field tests against plant pathogens; type: in vivo; settings: field test, crop cucumber
Text: as §2

Rhynchosporium secalis = assay: Field tests against plant pathogens; type: in vivo; settings: field test, crop barley
Text: as §2

Alternaria brassica = assay: Field tests against plant pathogens; type: in vivo; settings: field test, crop rape
Text: as §2

[10] = system: Puccinia recondita tritici (leaf rust); assay: Test 1 greenhouse foliar spray screen, leaf rust on wheat; type: in vivo; settings: for LEAF RUST: disease control rating, foliar spray on wheat, 400 ppm (+++ at 100 ppm)
[11] = system: Cercospora beticola (leaf spot); assay: Test 1 greenhouse foliar spray screen, leaf spot on sugar beet; type: in vivo
Puccinia recondita = assay: Field tests against plant pathogens; type: in vivo; settings: field test, crop wheat
Text: as §2

plant pathogens = assay: Fungicidal efficacy against a broad spectrum of plant pathogens (summary of screen); type: in vivo; settings: summary statement in the description
Podosphaera leucotricha = assay: Field tests against plant pathogens; type: in vivo; settings: field test, crop apple
Text: as §2

Uncinula necator = assay: Field tests against plant pathogens; type: in vivo; settings: field test, crop grape
Text: as §2

[12] = system: Erysiphe graminis tritici; assay: Field tests against plant pathogens; type: in vivo; settings: field test, crop wheat
Text: as §2

[13] = system: Pseudocercosporella herpotrichoides; assay: Field tests against plant pathogens; type: in vivo; settings: field test, crop wheat
Text: as §2

Piricularia oryzae = type: in vivo; settings: field test, crop rice
[14] = foliar, rate 200 ppm, foliar spray on squash

| Structure (SMILES) | POWD MDEW [1] | LEAF BLOT [2] | DOWN MDEW [3] | activity against downy mildew [3] | mortality at 200 ppm ([4]; SAW, SM & MA RATE 200 PPM) | mortality at 200 ppm ([5]; SAW, SM & MA RATE 200 PPM) | APPL SCAB [6] | GRAY MOLD [7] | mortality at 200 ppm ([8]; SAW, SM & MA RATE 200 PPM) | RICE BLAST [9] | activity against rice blast [9] | mortality at 12 ppm (corn rootworm; CRW RATE 12.00 PPM) | pathogens against which compounds of the invention showed activity (Pyrenophora teres) | pathogens against which compounds of the invention showed activity (Plasmopara viticola) | pathogens against which compounds of the invention showed activity (Sphaerotheca fuliginea) | pathogens against which compounds of the invention showed activity (Rhynchosporium secalis) | pathogens against which compounds of the invention showed activity (Alternaria brassica) | LEAF RUST [10] | other results |
| --- | --- | --- | --- | --- | --- | --- | --- | --- | --- | --- | --- | --- | --- | --- | --- | --- | --- | --- | --- |
| Fc1cccc2c(NCCc3ccccc3)ccnc12 [Example 5, 8-fluoro-N-(2-phenylethyl)-4-quinolinamine] | ++ (90-100% control at 400 ppm) | +++ (90-100% control at 100 ppm) | +++ (90-100% control at 100 ppm) | particularly excellent activity | 0% | 0% | - (0-19% control at 400 ppm) | - (0-19% control at 400 ppm) | 0% | ++ (90-100% control at 400 ppm) | particularly excellent activity | 0% | Pyrenophora teres | Plasmopara viticola | Sphaerotheca fuliginea | Rhynchosporium secalis | Alternaria brassica | +++ (90-100% control at 100 ppm) | RESULTS (CUCURBIT DOWNY MILDEW; Ex. 5 alone 6.00 ppm, time 4 hours): 1.0; RESULTS (CUCURBIT DOWNY MILDEW; Ex. 5 alone 12.00 ppm, time 4 hours): 7.0; RESULTS (CUCURBIT DOWNY MILDEW; Ex. 5 alone 24.00 ppm, time 4 hours): 7.5; RESULTS (CUCURBIT DOWNY MILDEW; Ex. 5 alone 48.00 ppm, time 4 hours (treatment before inoculation)): 8.0; pathogens against which compounds of the invention showed activity (Phytophthora infestans; crop potato): Phytophthora infestans; pathogens against which compounds of the invention showed activity (Phytophthora infestans; crop tomato): Phytophthora infestans; RESULTS (CUCURBIT POWDERY MILDEW; Ex. 5 alone 6.00 ppm): 1.0; RESULTS (CUCURBIT POWDERY MILDEW; Ex. 5 alone 12.00 ppm): 1.0; RESULTS (CUCURBIT POWDERY MILDEW; Ex. 5 alone 24.00 ppm): 5.0; RESULTS (CUCURBIT POWDERY MILDEW; Ex. 5 alone 48.00 ppm): 6.0 |
| Fc1cccc2c(NCCc3ccc4ccccc4c3)ccnc12 [Example 159, 8-fluoro-N-[2-(2-naphthyl)ethyl]-4-quinolinamine] | ++ (90-100% control at 400 ppm) | +++ (90-100% control at 100 ppm) | +++ (90-100% control at 100 ppm) | particularly excellent activity | 0% | 0% | - (0-19% control at 400 ppm) | - (0-19% control at 400 ppm) | 0% | +++ (90-100% control at 100 ppm) |  | 0% |  | Plasmopara viticola |  | Rhynchosporium secalis |  | +++ (90-100% control at 100 ppm) | LEAF SPOT ([11]; disease control rating, foliar spray on sugar beet, 400 ppm (+++ at 100 ppm)): + (20-89% control at 400 ppm); pathogens against which compounds of the invention showed activity (Puccinia recondita): Puccinia recondita |
| Cc1ccc(CCOc2ccnc3c(F)cccc23)cc1 [Example 212, 8-fluoro-4-[2-(4-methylphenyl)ethoxy]quinoline] |  |  |  | particularly excellent activity |  |  |  |  |  |  | particularly excellent activity |  | Pyrenophora teres | Plasmopara viticola | Sphaerotheca fuliginea | Rhynchosporium secalis | Alternaria brassica |  | pest or weed control at 400 ppm ([1]; Blumeria graminis, foliar, Test 1, foliar spray on wheat, disease control rating at 400 ppm / 100 ppm, read-out: POWD MDEW): 90 to 100%; pest or weed control at 400 ppm ([2]; Zymoseptoria tritici, Test 1, foliar spray on wheat, disease control rating at 400 ppm / 100 ppm, read-out: LEAF BLOT): 90 to 100%; activity against a broad spectrum of plant pathogens (plant pathogens): particularly excellent activity; pest or weed control at 400 ppm ([3]; Pseudoperonospora cubensis, foliar, Test 1, foliar spray on squash, disease control rating at 400 ppm / 100 ppm, read-out: DOWN MDEW): 90 to 100%; mortality at 200 ppm [4, 14]: 0%; mortality at 200 ppm [5, 14]: 0%; pest or weed control at 400 ppm ([6]; Venturia inaequalis, Test 1, foliar spray on apple seedling, disease control rating at 400 ppm / 100 ppm, read-out: APPL SCAB): 90 to 100%; pest or weed control at 400 ppm ([11]; Cercospora beticola, Test 1, foliar spray on sugar beet, disease control rating at 400 ppm / 100 ppm): 0 to 19%; pest or weed control at 400 ppm ([7]; Botrytis cinerea, foliar, Test 1, spray on grape berries, disease control rating at 400 ppm / 100 ppm): 0 to 19%; mortality at 200 ppm [8, 14]: 0%; pest or weed control at 400 ppm ([9]; Pyricularia oryzae, foliar, read-out: RICE BLAST, Test 1, foliar spray on rice, disease control rating at 400 ppm / 100 ppm): 90 to 100%; mortality at 12 ppm (corn rootworm; CRW rate 12.00 ppm): 0%; pathogens against which compounds of the invention showed activity (Podosphaera leucotricha): Podosphaera leucotricha; pathogens against which compounds of the invention showed activity (Uncinula necator): Uncinula necator; pathogens against which compounds of the invention showed activity [12]: Erysiphe graminis tritici; pathogens against which compounds of the invention showed activity [13]: Pseudocercosporella herpotrichoides; pathogens against which compounds of the invention showed activity (Piricularia oryzae): Piricularia oryzae; pest or weed control at 400 ppm ([10]; Puccinia recondita, foliar, Test 1, foliar spray on wheat, disease control rating at 400 ppm / 100 ppm): 90 to 100% |
